In patent US12685312B2, “Sulfonamide apyrase inhibitors” (Texas Crop Science, Inc., priority 2022, dated 2026):

The compounds below were run on apyrase (assay: Screen for apyrase inhibitors (Method 1, in vitro phosphate-release absorbance assay)). Conditions: inhibitor conc at 1 mM stock, 1 hr room temperature, absorbance 630 nm; rounded average of two assay results.
Format: biochemical
In short: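 Phosphate-release colorimetric assay (Windsor method) in 60 mM Hepes, 3 mM MgCl2, 3 mM CaCl2, 3 mM ATP, pH 6.5, with compound or DMSO control added. Released phosphate developed with ammonium molybdate and ascorbic acid/TCA, then stopped with citrate/acetic acid.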

| % Inhibition of Apyrase | SMILES |
| --- | --- |
| 57% | Cc1cccc(NC(=O)c2cccc(S(=O)(=O)Nc3ccc4c(c3)OCO4)c2)c1 [I-270, 3-(N-(benzo[d][1,3]dioxol-5-yl)sulfamoyl)-N-(m-tolyl)benzamide] |
| 69% | Cc1ccc(C(=O)Nc2ccc([N+](=O)[O-])cc2)cc1S(=O)(=O)Nc1ccc(Br)cc1 [I-6, 3-(N-(4-bromophenyl)sulfamoyl)-4-methyl-N-(4-nitrophenyl)benzamide] |
| 62% | Cc1cccc(NC(=O)c2cccc(NS(=O)(=O)c3ccc4c(c3)OCCO4)c2)c1C [I-320, 3-((2,3-dihydrobenzo[b][1,4]dioxine)-6-sulfonamido)-N-(2,3-dimethylphenyl)benzamide] |
| 53% | O=C(Nc1ccc(S(=O)(=O)Nc2cccc(Cl)c2)cc1)c1ccc(F)cc1 [I-990, N-(4-(N-(3-chlorophenyl)sulfamoyl)phenyl)-4-fluorobenzamide] |
| 61% | COc1cccc(NC(=O)c2cccc(S(=O)(=O)Nc3ccc4c(c3)OCO4)c2)c1 [I-253, 3-(N-(benzo[d][1,3]dioxol-5-yl)sulfamoyl)-N-(3-methoxyphenyl)benzamide] |
| 58% | O=C(Nc1ccccc1N1CCCC1)c1cccc(S(=O)(=O)N2CCc3ccccc32)c1 [I-492, 3-(indolin-1-ylsulfonyl)-N-(2-(pyrrolidin-1-yl)phenyl)benzamide] |
| 48% | C#Cc1cccc(NC(=O)c2ccccc2S(=O)(=O)N(C)c2ccccc2)c1 [I-352, N-(3-ethynylphenyl)-2-(N-methyl-N-phenylsulfamoyl)benzamide] |
| 41% | O=C(Nc1ccc2c(c1)OCO2)c1ccc(S(=O)(=O)Nc2ccccc2F)cc1 [I-401, N-(benzo[d][1,3]dioxol-5-yl)-4-(N-(2-fluorophenyl)sulfamoyl)benzamide] |
| 43% | COc1ccc(NS(=O)(=O)c2ccc(C(=O)Nc3ccc4c(c3)OCCO4)cc2)cc1 [I-887, N-(2,3-dihydrobenzo[b][1,4]dioxin-6-yl)-4-(N-(4-methoxyphenyl)sulfamoyl)benzamide] |
| 55% | O=C(Nc1ccc2c(c1)OC1(CCCC1)O2)c1cccc(S(=O)(=O)Nc2ccc3c(c2)OCO3)c1 [I-531, 3-(N-(benzo[d][1,3]dioxol-5-yl)sulfamoyl)-N-(spiro[benzo[d][1,3]dioxole-2,1′-cyclopentan]-5-yl)benzamide] |
| 73% | O=C(c1cccc(S(=O)(=O)Nc2ccc3c(c2)OCO3)c1)N1CCc2ccccc21 [I-188, N-(benzo[d][1,3]dioxol-5-yl)-3-(indoline-1-carbonyl)benzenesulfonamide] |
| 42% | COc1ccc(OC)c(S(=O)(=O)Nc2cccc(C(=O)Nc3cccc(C(F)(F)F)c3)c2)c1 [I-323, 3-((2,5-dimethoxyphenyl)sulfonamido)-N-(3-(trifluoromethyl)phenyl)benzamide] |
| 54% | Cc1ccc(S(=O)(=O)Nc2ccc(F)cc2)cc1C(=O)N1CCc2ccccc21 [I-543, N-(4-fluorophenyl)-3-(indoline-1-carbonyl)-4-methylbenzenesulfonamide] |
| 19% | COc1ccc(NC(=O)c2ccc(NS(=O)(=O)c3ccc(F)cc3)cc2)cc1OC [I-958, N-(3,4-dimethoxyphenyl)-4-((4-fluorophenyl)sulfonamido)benzamide] |
| 35% | O=C(Nc1ccccc1OC(F)F)c1ccc(S(=O)(=O)Nc2ccccc2)cc1 [I-405, N-(2-(difluoromethoxy)phenyl)-4-(N-phenylsulfamoyl)benzamide] |
| 62% | O=C(Nc1cccc(F)c1)c1ccc(NS(=O)(=O)c2ccccc2)cc1 [I-904, N-(3-fluorophenyl)-4-(phenylsulfonamido)benzamide] |

| SMILES | % Inhibition of Apyrase |
| --- | --- |
| O=C(Nc1cccc([N+](=O)[O-])c1)c1cccc(S(=O)(=O)Nc2cccc([N+](=O)[O-])c2)c1 [I-32, N-(3-nitrophenyl)-3-(N-(3-nitrophenyl)sulfamoyl)benzamide] | 21% |
